Patent US10105357B2, “Indication of antibiotic drugs for preparation of cancer inhibition pharmaceutical composition” (LAUNX BIOMEDICAL CO., LTD., priority 2014, dated 2018)
Structures can show the parent of a compound that is named as a salt. Where two headings read alike, the source gives them in different places.

Tests used:
Assay type in all cases: cell-based, human
[1] = tested on: MCF7 (Mammary Gland, Adenocarcinoma); experiment: Cell viability analysis, breast cancer MCF7; settings: for viability at 10 µM: Homo sapiens, MCF7, 72 h
[2] = tested on: TSGH-8301 (Urinary Bladder Carcinoma); experiment: Cell viability analysis, bladder cancer TSGH-8301; settings: Homo sapiens, 72 h
[3] = tested on: LoVo (Colorectal Adenocarcinoma); experiment: Cell viability analysis, colon cancer LoVo; settings: for viability at 10 µM: Homo sapiens, LoVo, 72 h, read-out: cell viability (survival rate), LoVo, drug 10 μM, 72 hours, WST-1, OD450 nm
[4] = tested on: HI650 (Lung Adenocarcinoma); experiment: Cell viability analysis, lung cancer HI650; settings: for viability at 10 µM: Homo sapiens, NCI-H1650, 72 h
[5] = tested on: A375 (Amelanotic Melanoma); experiment: Cell viability analysis, skin cancer A375; settings: for viability at 10 µM: Homo sapiens, A-375, 72 h
cancer cell lines = experiment: Cell viability analysis (WST-1) on cancer cell lines; settings: drug 10 μM, 72 hours, WST-1; Table 3
[6] = tested on: HeLa (Cervix Adenocarcinoma); experiment: Cell viability analysis, cervical cancer HeLa; settings: for viability at 10 µM: Homo sapiens, HeLa, 72 h
[7] = tested on: HL-60 (Acute Promyelocytic Leukemia); experiment: Cell viability analysis, leukemia HL-60; settings: for viability at 10 µM: Homo sapiens, HL-60, 72 h
[8] = tested on: MKN-45 (Gastric Adenocarcinoma); experiment: Cell viability analysis, gastric cancer MKN-45; settings: for viability at 10 µM: Homo sapiens, MKN-45, 72 h
[9] = tested on: PC3 (p53−) (Prostate Adenocarcinoma); experiment: Cell viability analysis, prostate cancer PC3; settings: for viability at 10 µM: Homo sapiens, 72 h
[10] = tested on: A549 (Lung Adenocarcinoma); experiment: Cell viability analysis, lung cancer A549; settings: for viability at 10 µM: Homo sapiens, A549, 72 h
[11] = tested on: HepG2 (Hepatocellular Carcinoma); experiment: Cell viability analysis, hepatic cancer HepG2; settings: for viability at 10 µM: Homo sapiens, HepG2, 72 h
[12] = tested on: AGS (Gastric Adenocarcinoma); experiment: Cell viability analysis, gastric cancer AGS; settings: for viability at 10 µM: Homo sapiens, 72 h
[13] = read-out: cell viability (survival rate), MCF7, drug 10 μM, 72 hours, WST-1, OD450 nm
[14] = read-out: cell viability (survival rate), TSGH, drug 10 μM, 72 hours, WST-1, OD450 nm
[15] = read-out: cell viability (survival rate), H1650, drug 10 μM, 72 hours, WST-1, OD450 nm
[16] = read-out: cell viability (survival rate), A375, drug 10 μM, 72 hours, WST-1, OD450 nm
[17] = read-out: cell viability (survival rate), HeLa, drug 10 μM, 72 hours, WST-1, OD450 nm
[18] = read-out: cell viability (survival rate), HL-60, drug 10 μM, 72 hours, WST-1, OD450 nm
[19] = read-out: cell viability (survival rate), MKN-45, drug 10 μM, 72 hours, WST-1, OD450 nm
[20] = read-out: cell viability (survival rate), PC3, drug 10 μM, 72 hours, WST-1, OD450 nm
[21] = read-out: cell viability (survival rate), A549, drug 10 μM, 72 hours, WST-1, OD450 nm
[22] = read-out: cell viability (survival rate), HepG2, drug 10 μM, 72 hours, WST-1, OD450 nm
[23] = drug 10 μM, 72 hours, WST-1, OD450 nm, read-out: cell viability (survival rate), MCF7
[24] = drug 10 μM, 72 hours, WST-1, OD450 nm, read-out: cell viability (survival rate), AGS
[25] = drug 10 μM, 72 hours, WST-1, OD450 nm, read-out: cell viability (survival rate), TSGH
[26] = drug 10 μM, 72 hours, WST-1, OD450 nm, read-out: cell viability (survival rate), H1650
[27] = drug 10 μM, 72 hours, WST-1, OD450 nm, read-out: cell viability (survival rate), A375
[28] = drug 10 μM, 72 hours, WST-1, OD450 nm, read-out: cell viability (survival rate), HeLa
[29] = drug 10 μM, 72 hours, WST-1, OD450 nm, read-out: cell viability (survival rate), HL-60
[30] = drug 10 μM, 72 hours, WST-1, OD450 nm, read-out: cell viability (survival rate), MKN-45
[31] = drug 10 μM, 72 hours, WST-1, OD450 nm, read-out: cell viability (survival rate), PC3
[32] = drug 10 μM, 72 hours, WST-1, OD450 nm, read-out: cell viability (survival rate), A549
[33] = drug 10 μM, 72 hours, WST-1, OD450 nm, read-out: cell viability (survival rate), HepG2
[34] = read-out: cell viability (survival rate), AGS, drug 10 μM, 72 hours, WST-1, OD450 nm
[35] = drug 10 μM, 72 hours, WST-1, OD450 nm

Row | Molecule | viability at 10 µM [1, 13] [%] | viability at 10 µM [2, 14] [%] | viability at 10 µM [3] [%] | viability at 10 µM [4, 15] [%] | viability at 10 µM [5, 16] [%] | inhibition effect on different cancer cell lines (cancer cell lines) | viability at 10 µM [6, 17] [%] | viability at 10 µM [7, 18] [%] | viability at 10 µM [8, 19] [%] | viability at 10 µM [9, 20] [%] | viability at 10 µM [10, 21] [%] | viability at 10 µM [11, 22] [%] | viability at 10 µM [12, 34] [%] | further results
1 | CS(=O)(=O)c1ccc([C@@H](O)[C@@H](CF)NC(=O)C(Cl)Cl)cc1 [Florfenicol] | 123 | 86.9 | 92.9 | 87 | 88.4 | significant inhibition effect | 95.1 | 109 | 117 | 102 | 67.8 | 161 | – | –
2 | COc1ncnc(NS(=O)(=O)c2ccc(N)cc2)c1OC [Sulfadoxine (Sulphadoxine), Sulfadoxine] | – | – | 92.9 | – | – | significant inhibition effect | – | – | – | – | – | – | – | viability at 10 µM [1, 23]: 132%; viability at 10 µM [12, 24]: 91.1%; viability at 10 µM [2, 25]: 64.3%; viability at 10 µM [4, 26]: 62.2%; viability at 10 µM [5, 27]: 65.5%; viability at 10 µM [6, 28]: 78.2%; viability at 10 µM [7, 29]: 111%; viability at 10 µM [8, 30]: 87.4%; viability at 10 µM [9, 31]: 119%; viability at 10 µM [10, 32]: 96.6%; viability at 10 µM [11, 33]: 90.5%
3 | CCC(C)(C)c1ccc(CC(C)CN2C[C@@H](C)O[C@@H](C)C2)cc1 (some centres unmarked) [Amorolfine Hydrochloride] | 104 | 88.5 | 99.7 | 79.6 | 98.6 | significant inhibition effect | 84.6 | 104 | 65.1 | 104 | 104 | 91.6 | 94.4 | –
4 | CN(C/C=C/c1ccccc1)Cc1cccc2ccccc12 [Naftifine HCl] | 84.5 | 79.6 | 86.3 | 72.3 | 63.3 | significant inhibition effect | 80.6 | 93.2 | 58.5 | 109 | 127 | 91.2 | 104 | –
5 | Cc1onc(-c2c(Cl)cccc2Cl)c1C(=O)N[C@@H]1C(=O)N2[C@@H]1SC(C)(C)[C@@H]2C(=O)O [Dicloxacillin Sodium] | 45.3 | 84.3 | 92.4 | 68.4 | 79 | significant inhibition effect | 60.1 | 72.7 | 66.4 | 71.1 | 61.8 | 102 | 147 | –
6 | Nc1ccc(S(=O)(=O)Nc2ncccn2)cc1 [Sulfadiazine] | 37.2 | 80.4 | 93.6 | 69.2 | 79.5 | significant inhibition effect | 43.7 | 106 | 44.4 | 70.1 | 38.1 | 114 | 91.8 | –
7 | COc1cc2nc(N3CCN(C(=O)C4CCCO4)CC3)nc(N)c2cc1OC (centres unmarked) [Terazos in HCl (Hytrin), Terazosin HCl] | 33.4 | 71.6 | 45.7 | 74.9 | 77.9 | significant inhibition effect | 60.7 | 111 | 82.1 | 40.5 | 21.3 | 93.4 | 56.8 | –
8 | Nc1ncnc2c1ncn2[C@@H]1O[C@H](CO)[C@@H](O)[C@@H]1O [Vidarabine (Vira-A), Vidarabine] | 36.5 | 68.6 | 72.9 | 78.8 | 48.1 | significant inhibition effect | 47.7 | 99 | 44.4 | 70.6 | 32.2 | 74.2 | 104 | –
9 | O=C(C[S+]([O-])Cc1ccco1)NC/C=C\COc1cc(CN2CCCCC2)ccn1 (centres unmarked) [Lafutidine] | – | – | 48 | – | – | significant inhibition effect | – | – | – | – | – | – | – | viability at 10 µM [1, 23]: 33.6%; viability at 10 µM [12, 24]: 45.5%; viability at 10 µM [2, 25]: 51.9%; viability at 10 µM [4, 26]: 80.1%; viability at 10 µM [5, 27]: 116%; viability at 10 µM [6, 28]: 46.9%; viability at 10 µM [7, 29]: 95.3%; viability at 10 µM [8, 30]: 89.6%; viability at 10 µM [9, 31]: 40.7%; viability at 10 µM [10, 32]: 21.3%; viability at 10 µM [11, 33]: 102%
10 | CC(=O)O[C@]1(C(C)=O)CC[C@H]2[C@@H]3C=C(C)C4=CC(=O)CC[C@]4(C)[C@H]3CC[C@@]21C [Megestrol Acetate] | 110 | 74.3 | 109 | 56 | 80.8 | significant inhibition effect | 78.6 | 94 | 74.8 | 80.3 | – | 88.9 | 84.7 | –
11 | Tenofovir [Tenofovir (Viread)] | – | – | – | – | – | significant inhibition effect | – | – | – | – | – | – | – | cell viability (survival rate), MCF7 [1, 35]: 71.1; cell viability (survival rate), AGS [12, 35]: 67.0; cell viability (survival rate), LoVo [3, 35]: 85.9; cell viability (survival rate), H1650 [4, 35]: 55.6; cell viability (survival rate), A375 [5, 35]: 60.6; cell viability (survival rate), HeLa [6, 35]: 95.0; cell viability (survival rate), HL-60 [7, 35]: 97.6; cell viability (survival rate), MKN-45 [8, 35]: 70.9; cell viability (survival rate), PC3 [9, 35]: 68.1; cell viability (survival rate), A549 [10, 35]: 47.7; cell viability (survival rate), HepG2 [11, 35]: 99.0
12 | Nc1nc2c(ncn2COCCO)c(=O)[nH]1 [Acyclovir (Aciclovir), Acyclovir] | 75.8 | 107 | 66.3 | – | 112 | significant inhibition effect | 87.2 | 91.6 | 55.9 | 102 | 126 | 104 | 77.1 | –
